Assay results: PubChem BioAssay AID248 (DTP/NCI, 2004)
Several values for one entry are separate records, joined by “and”; a condition that tells them apart may be missing. Equal entries are not always repeated. Toxic doses and inconclusive results are not listed. Cut-off read from the data, not from the text of the source: active = T/C of 150% or more; inactive = T/C below 125%.

Test system: L1210 leukemia ip in BDF1 mice, survival T/C
Assay: NCI In Vivo Anticancer Drug Screen. Data for tumor model L1210 Leukemia (intraperitoneal) in B6D2F1 (BDF1) mice
Settings: endpoint: mean survival time, higher = longer survival
In short: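 In this screen, tumor-bearing mice given compound are compared to those given vehicle, and their survival values are reported as a treated-to-control quotient.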

[1] = dose: 200.0 mg/kg/injection, schedule: Q01DX001 (ip), vehicle: other
[2] = dose: 400.0 mg/kg/injection, schedule: Q01DX001 (ip), vehicle: other
[3] = dose: 100.0 mg/kg/injection, schedule: Q01DX009 (ip), vehicle: Klucel (hydroxypropylcellulose) (HPC)
[4] = dose: 200.0 mg/kg/injection, schedule: Q01DX009 (ip), vehicle: Klucel (hydroxypropylcellulose) (HPC)
[5] = dose: 400.0 mg/kg/injection, schedule: Q01DX009 (ip), vehicle: Klucel (hydroxypropylcellulose) (HPC)
[6] = dose: 100.0 mg/kg/injection, schedule: Q04DX002 (ip), vehicle: Klucel (hydroxypropylcellulose) (HPC)
[7] = dose: 200.0 mg/kg/injection, schedule: Q04DX002 (ip), vehicle: Klucel (hydroxypropylcellulose) (HPC)
[8] = dose: 100.0 mg/kg/injection, schedule: Q01DX009 (ip), vehicle: saline with Tween-80
[9] = dose: 200.0 mg/kg/injection, schedule: Q01DX009 (ip), vehicle: saline with Tween-80
[10] = dose: 400.0 mg/kg/injection, schedule: Q01DX009 (ip), vehicle: saline with Tween-80
[11] = dose: 100.0 mg/kg/injection, schedule: Q01DX009 (ip), vehicle: saline
[12] = dose: 200.0 mg/kg/injection, schedule: Q01DX009 (ip), vehicle: saline
[13] = dose: 400.0 mg/kg/injection, schedule: Q01DX009 (ip), vehicle: saline
[14] = dose: 100.0 mg/kg/injection, schedule: Q04DX003 (ip), vehicle: saline with Tween-80
[15] = dose: 200.0 mg/kg/injection, schedule: Q04DX003 (ip), vehicle: saline with Tween-80
[16] = dose: 400.0 mg/kg/injection, schedule: Q04DX003 (ip), vehicle: saline with Tween-80
[17] = dose: 12.5 mg/kg/injection, schedule: Q04DX003 (ip), vehicle: saline
[18] = dose: 25.0 mg/kg/injection, schedule: Q04DX003 (ip), vehicle: saline
[19] = dose: 100.0 mg/kg/injection, schedule: Q04DX003 (ip), vehicle: saline
[20] = dose: 200.0 mg/kg/injection, schedule: Q04DX003 (ip), vehicle: saline
[21] = dose: 100.0 mg/kg/injection, schedule: Q04DX003 (ip), vehicle: Klucel (hydroxypropylcellulose) (HPC)
[22] = dose: 200.0 mg/kg/injection, schedule: Q04DX003 (ip), vehicle: Klucel (hydroxypropylcellulose) (HPC)
[23] = dose: 400.0 mg/kg/injection, schedule: Q04DX003 (ip), vehicle: Klucel (hydroxypropylcellulose) (HPC)
[24] = dose: 100.0 mg/kg/injection, schedule: Q01DX001 (ip), vehicle: saline
[25] = dose: 200.0 mg/kg/injection, schedule: Q01DX001 (ip), vehicle: saline
[26] = dose: 50.0 mg/kg/injection, schedule: Q04DX003 (ip), vehicle: saline
[27] = dose: 50.0 mg/kg/injection, schedule: Q01DX009 (ip), vehicle: saline with Tween-80

Measured: T/C

CCCCCCCCCCCCCCCc1cc(O)cc(O)c1
inactive: dose: 50.0 mg/kg/injection, schedule: Q01DX001 (ip), vehicle: other 88 % of control | [1] 95 % of control | [2] 93 % of control

Cc1ccc(S(=O)(=O)OCCOc2ccc(C(C)(C)CC(C)(C)C)cc2)cc1
inactive: [3] 100 % of control | [4] 101 % of control | [5] 100 % of control

CCOC(=O)c1ccc(NC(=O)CCCCCCCCC(=O)Nc2ccc(C(=O)OCC)cc2)cc1
inactive: [6] 91 % of control | [7] 102 % of control | dose: 400.0 mg/kg/injection, schedule: Q04DX002 (ip), vehicle: Klucel (hydroxypropylcellulose) (HPC) 95 % of control

CCCCCCCC[Si](c1ccc(C)cc1)(c1ccc(C)cc1)c1ccc(C)cc1
inactive: dose: 100.0 mg/kg/injection, schedule: Q01DX001 (ip), vehicle: other 97 % of control | [1] 95 % of control | [2] 97 % of control

O=c1ccc([N+](=O)[O-])cn1Cc1ccccc1
inactive: dose: 100.0 mg/kg/injection, schedule: Q01DX001 (ip), vehicle: saline with Tween-80 114 % of control | [8] 106 % of control | dose: 200.0 mg/kg/injection, schedule: Q01DX001 (ip), vehicle: saline with Tween-80 100 % of control | [9] 98 % of control | dose: 400.0 mg/kg/injection, schedule: Q01DX001 (ip), vehicle: saline with Tween-80 96 % of control | [10] 106 % of control

COC(=O)C1=C[N+](C)(C)N=C1[O-]
inactive: [11] 97 % of control | [12] 94 % of control | [13] 93 % of control

CC(=O)OCCn1c([N+](=O)[O-])cnc1/C=[N+](/[O-])CCOC(C)=O
inactive: dose: 100.0 mg/kg/injection, schedule: Q04DX002 (ip), vehicle: saline 103 % of control | dose: 200.0 mg/kg/injection, schedule: Q04DX002 (ip), vehicle: saline 92 % of control | dose: 400.0 mg/kg/injection, schedule: Q04DX002 (ip), vehicle: saline 100 % of control

N#CC(C(=O)Nc1cccc(C(F)(F)F)c1)C(=S)Nc1ccccc1Cl (configuration not stated)
inactive: dose: 25.0 mg/kg/injection, schedule: Q04DX002 (ip), vehicle: saline with Tween-80 102 % of control | dose: 50.0 mg/kg/injection, schedule: Q04DX002 (ip), vehicle: saline with Tween-80 105 % of control | dose: 100.0 mg/kg/injection, schedule: Q04DX002 (ip), vehicle: saline with Tween-80 101 % of control and 105 % of control

O=C(O)c1cc(Br)c(Cl)c(Br)c1
inactive: [6] 100 % of control | [7] 100 % of control

CCCCCCCCCOc1ccc2ccccc2c1
inactive: [14] 102 % of control | [15] 97 % of control | [16] 92 % of control

CCC(C)[Se][Se]C(C)CC (configuration not stated)
inactive: dose: 6.25 mg/kg/injection, schedule: Q01DX009 (ip), vehicle: saline 94 % of control | dose: 6.25 mg/kg/injection, schedule: Q04DX003 (ip), vehicle: saline 97 % of control | dose: 12.5 mg/kg/injection, schedule: Q01DX009 (ip), vehicle: saline 98 % of control | [17] 103 % of control | dose: 25.0 mg/kg/injection, schedule: Q01DX009 (ip), vehicle: saline 91 % of control | [18] 103 % of control | [19] 89 % of control

c1ccc(CN2CCCCc3ccccc32)cc1
inactive: [14] 93 % of control | [15] 88 % of control

N#CCCN1CCCC(=O)NC1=O
inactive: [8] 103 % of control | [19] 105 % of control | [9] 94 % of control | [20] 103 % of control | [10] 97 % of control | dose: 400.0 mg/kg/injection, schedule: Q04DX003 (ip), vehicle: saline 100 % of control

Cn1c(=O)c2ncn(CC(O)COc3ccccc3)c2n(C)c1=O (configuration not stated)
inactive: [21] 102 % of control | [22] 104 % of control | [23] 101 % of control

O=C(OCC1OC(n2ccc(=S)[nH]c2=O)C(OC(=O)c2ccccc2)C1OC(=O)c1ccccc1)c1ccccc1 (configuration not stated)
inactive: dose: 50.0 mg/kg/injection, schedule: Q01DX001 (ip), vehicle: saline 98 % of control | [24] 95 % of control | [25] 101 % of control | dose: 400.0 mg/kg/injection, schedule: Q01DX001 (ip), vehicle: saline 104 % of control

Cc1cccc(OCCOc2cccc(C)c2)c1
inactive: [24] 98 % of control | [25] 94 % of control

Cc1ccc(C(=O)NC(N)=O)cc1
inactive: [3] 101 % of control | [4] 95 % of control

Nc1ccc2c(c1)S(=O)(=O)c1cc(O)ccc1O2
inactive: [3] 98 % of control | [21] 102 % of control | [4] 95 % of control | [22] 97 % of control | [5] 96 % of control | [23] 102 % of control

CCOC(=O)C(C(=O)c1ccccc1)=P(c1ccccc1)(c1ccccc1)c1ccccc1
inactive: [21] 100 % of control | [22] 100 % of control | [23] 102 % of control

COc1cc(/C=N/N2CCN(/N=C/c3cc(OC)c(OC)c(OC)c3)CC2)cc(OC)c1OC
inactive: [21] 103 % of control | [22] 101 % of control | [23] 103 % of control

C1CCCCCC(C2CCCCCCCCCCC2)CCCCC1
inactive: dose: 25.0 mg/kg/injection, schedule: Q01DX009 (ip), vehicle: acetone 94 % of control | [18] 94 % of control | dose: 50.0 mg/kg/injection, schedule: Q01DX009 (ip), vehicle: acetone 93 % of control | [26] 92 % of control | [24] 92 % of control | dose: 100.0 mg/kg/injection, schedule: Q01DX009 (ip), vehicle: acetone 98 % of control | [19] 92 % of control | dose: 150.0 mg/kg/injection, schedule: Q01DX009 (ip), vehicle: saline 90 % of control | dose: 225.0 mg/kg/injection, schedule: Q01DX009 (ip), vehicle: saline 88 % of control | dose: 335.0 mg/kg/injection, schedule: Q01DX009 (ip), vehicle: saline 93 % of control

S=C(NCCNC(=S)Nc1ccccc1)Nc1ccccc1
inactive: [27] 98 % of control | [8] 92 % of control | [9] 92 % of control

O=C1OC2C(I)C3CC1C2C3 (configuration not stated)
inactive: [27] 96 % of control | [8] 95 % of control

O=C1NC(=O)C(C2CCCCC2)(C2CCCCC2)N1
inactive: [11] 103 % of control | [14] 107 % of control | [12] 94 % of control | [15] 107 % of control | [13] 88 % of control | [16] 93 % of control

C/C=C/c1ccc(OCC)c(OC)c1
inactive: [19] 97 % of control | [20] 98 % of control

Cc1c2cnccc2c(C)c2c1c1ccccc1n2CCN(C)C
inactive: [17] 105 % of control | [18] 97 % of control | [26] 102 % of control | dose: 300.0 mg/kg/injection, schedule: Q04DX003 (ip), vehicle: saline 113 % of control
